In patent US8628771B2, “CA IX-specific inhibitors” (Institute of Virology Slovak Academy of Sciences, priority 2002, dated 2014):
Read-outs that look alike come from different tables or passages of the source.

What was measured:
[1] = target: T1, bCA IV (Bos taurus, UniProt Q95323); test: CA esterase activity assay, isozyme bCA IV; assay type: biochemical, bovine; settings: read-out: KI bCA IV
T1 construct: CA IV was isolated from bovine lung microsomes as described by Maren et al; from tissue; host or cells: bovine lung microsomes
T1 sequence (Q95323 19-284): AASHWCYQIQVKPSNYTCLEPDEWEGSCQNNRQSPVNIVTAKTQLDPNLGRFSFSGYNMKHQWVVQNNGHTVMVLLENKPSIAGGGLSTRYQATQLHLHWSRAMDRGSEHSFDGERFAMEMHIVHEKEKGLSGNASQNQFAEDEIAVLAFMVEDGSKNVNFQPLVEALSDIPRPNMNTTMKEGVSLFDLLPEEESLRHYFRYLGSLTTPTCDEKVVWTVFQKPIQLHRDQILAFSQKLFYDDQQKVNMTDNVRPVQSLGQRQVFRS

[2] = target: hCA IX (Homo sapiens, UniProt Q16790); test: CA CO2 hydrase activity assay, tumor-associated isozyme hCA IX
Procedure: An SX.18MV-R Applied Photophysics stopped-flow instrument has been used for assaying the CA CO2 hydration activity assays [44]. […] Inhibitor and enzyme solutions were preincubated together for 10 min at room temperature prior to assay, in order to allow for the formation of the E-I complex.

[3] = target: T2, hCA I (Homo sapiens, UniProt P00915); test: CA esterase activity assay, isozyme hCA I; assay type: biochemical
T2 construct: made in house; host or cells: Escherichia coli BL21 (DE3)
Procedure: (§1) Human CA I and CA II cDNAs were expressed in Escherichia coli strain BL21 (DE3) from the plasmids pACA/hCA I and pACA/hCA II described by Lindskog's group [54].
(§2) Non-enzymatic hydrolysis rates were always subtracted from the observed rates. […] Inhibitor and enzyme solutions were preincubated together for 10 min at room temperature prior to assay, in order to allow for the formation of the E-I complex. The inhibition constant KI was determined as described in references [44, 76].

[4] = target: T3, hCA II (Homo sapiens, UniProt P00918); test: CA esterase activity assay, isozyme hCA II; assay type: biochemical
T3 construct: made in house; host or cells: Escherichia coli BL21 (DE3)
Procedure: as §1, §2

[5] = Table 1, isolated from bovine lung microsomes, esterase assay method
[6] = read-out: KI hCA IX, Table 1, human cloned isozyme, CO2 hydrase assay method
[7] = Table 1, human cloned isozymes, esterase assay method, read-out: KI hAC I
[8] = read-out: KI hCA IX, Table 2, catalytic domain of the human, cloned isozyme
[9] = Table 2, human (cloned) isozymes, read-out: KI hCA I
[10] = Table 2, from bovine lung microsomes
[11] = Table 2, human (cloned) isozymes, read-out: KI hCA II

T2 sequence (P00915 whole entry): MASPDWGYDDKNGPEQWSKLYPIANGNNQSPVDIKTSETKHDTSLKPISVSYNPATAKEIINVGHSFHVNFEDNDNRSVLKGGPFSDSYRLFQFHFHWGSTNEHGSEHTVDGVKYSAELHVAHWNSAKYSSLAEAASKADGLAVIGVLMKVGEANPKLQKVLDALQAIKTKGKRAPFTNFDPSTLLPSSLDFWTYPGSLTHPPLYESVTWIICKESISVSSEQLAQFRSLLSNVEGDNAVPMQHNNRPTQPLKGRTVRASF

Structure (SMILES) | Ki [2, 8] | Ki [3, 9] | Ki [1, 10] | Ki [4, 11] | further results
CCN[C@H]1CN(CCCOC)S(=O)(=O)c2sc(S(N)(=O)=O)cc21 [BRZ, brinzolamide, reference compound] | – | – | – | – | Ki [1, 5]: 45 nM
Nc1ccccc1S(N)(=O)=O [Compound 1] | – | – | – | – | Ki [2, 6]: 33 nM; Ki [1, 5]: 1310 nM
Nc1ccc(S(N)(=O)=O)cc1 [Compound 3, sulfanilamide] | – | – | – | – | Ki [1]: 3000 nM
NNc1ccc(S(N)(=O)=O)cc1 [Compound 4, 4-hydrazino-benzenesulfonamide] | – | – | – | – | Ki [3, 7]: 78.5 µM; Ki [1, 5]: 3220 nM
NCc1ccc(S(N)(=O)=O)cc1 [Compound 5, homosulfanilamide] | – | – | – | – | Ki ([2]; read-out: KI hCA IX): 103 nM
Nc1ccc(S(N)(=O)=O)cc1F [Compound 7] | – | – | – | – | Ki [2, 6]: 245 nM; Ki [1, 5]: 180 nM
Nc1ccc(S(N)(=O)=O)cc1Cl [Compound 8] | – | – | – | – | Ki [2, 6]: 264 nM
Nc1ccc(S(N)(=O)=O)cc1Br [Compound 9] | – | – | – | – | Ki [1, 5]: 66 nM
Nc1ccc(S(N)(=O)=O)cc1I [Compound 10] | – | – | – | – | Ki [2, 6]: 285 nM; Ki [3, 7]: 6 µM; Ki [1, 5]: 125 nM
Nc1cc(C(F)(F)F)c(S(N)(=O)=O)cc1S(N)(=O)=O [Compound 11] | – | – | – | – | Ki [1, 5]: 154 nM
Cn1nc(S(N)(=O)=O)sc1=N [Compound 14] | – | – | – | – | Ki [2, 6]: 30 nM
Nc1ccc(S(=O)(=O)Nc2ccc(S(N)(=O)=O)cc2)cc1 [Compound 16] | – | – | – | – | Ki [2, 6]: 34 nM; Ki [1, 5]: 129 nM
Nc1ccc(S(=O)(=O)Nc2ccccc2S(N)(=O)=O)cc1 [Compound 17] | – | – | – | – | Ki [3, 7]: 0.185 µM; Ki [1, 5]: 144 nM
Nc1ccc(S(=O)(=O)NCc2ccc(S(N)(=O)=O)cc2)cc1 [Compound 18] | – | – | – | – | Ki [1, 5]: 72 nM
Nc1ccc(S(=O)(=O)NCCc2ccc(S(N)(=O)=O)cc2)cc1 [Compound 19] | – | – | – | – | Ki [2, 6]: 24 nM; Ki [1, 5]: 72 nM
Nc1nccc(Nc2ccc(S(N)(=O)=O)cc2)n1 [Compound 20] | – | – | – | – | Ki ([2]; read-out: KI against CA IX, text discussion of Tables 1-3): 16 to 32 nM; Ki [2, 6]: 16 nM; Ki [1, 5]: 154 nM
NS(=O)(=O)c1cccc2cccnc12 [Compound 22] | – | – | – | – | Ki [2, 6]: 32 nM; Ki [1, 5]: 415 nM
NS(=O)(=O)c1cccc2ccccc12 [Compound 23] | – | – | – | – | Ki [2, 6]: 30 nM; Ki [1, 5]: 438 nM
NS(=O)(=O)c1ccc(CO)cc1 [Compound 24] | – | – | – | – | Ki [2, 6]: 21 nM
NS(=O)(=O)c1ccc(CCO)cc1 [Compound 25] | – | – | – | – | Ki [2, 6]: 22 nM; Ki [1, 5]: 450 nM
NS(=O)(=O)c1ccc(C(=O)O)cc1 [Compound 26] | – | – | – | – | Ki [2, 6]: 26 nM; Ki [1, 5]: 86 nM
Cc1cc(C)[n+](-c2ccc(S(N)(=O)=O)cc2)c(C)c1 [Compound 27] | 165 nM | 10 µM | 290 nM | 150 nM | Ki [2]: 160 to 450 nM
Cc1cc(-c2ccccc2)cc(C)[n+]1-c1ccc(S(N)(=O)=O)cc1 [Compound 28] | 48 nM | 7 µM | 211 nM | 60 nM | Ki [2]: 6 to 54 nM
CCc1cc(-c2ccccc2)cc(CC)[n+]1-c1ccc(S(N)(=O)=O)cc1 [Compound 29] | 43 nM | 6 µM | 182 nM | 60 nM | Ki ([2]; KI against CA IX, text discussion of Tables 1-3): 6 to 54 nM
CCCc1cc(-c2ccccc2)cc(CCC)[n+]1-c1ccc(S(N)(=O)=O)cc1 [Compound 30] | 178 nM | 10 µM | 194 nM | 120 nM | –
CC(C)c1cc(-c2ccccc2)cc(C(C)C)[n+]1-c1ccc(S(N)(=O)=O)cc1 [Compound 31] | 160 nM | 5 µM | 90 nM | – | –
Cc1cc(-c2ccccc2)cc(-c2ccccc2)[n+]1-c1ccc(S(N)(=O)=O)cc1 [Compound 32] | 280 nM | 40 µM | 852 nM | 210 nM | –

Structure (SMILES) | Ki [2, 8] | Ki [3, 9] | Ki [1, 10] | Ki [4, 11] | further results
CCc1cc(-c2ccccc2)cc(-c2ccccc2)[n+]1-c1ccc(S(N)(=O)=O)cc1 [Compound 33] | 450 nM | 43 µM | 1300 nM | 400 nM | –
CCCc1cc(-c2ccccc2)cc(-c2ccccc2)[n+]1-c1ccc(S(N)(=O)=O)cc1 [Compound 34] | – | 140 µM | 1480 nM | 580 nM | –
CC(C)c1cc(-c2ccccc2)cc(-c2ccccc2)[n+]1-c1ccc(S(N)(=O)=O)cc1 [Compound 35] | – | 125 µM | 2100 nM | 440 nM | –
CCCCc1cc(-c2ccccc2)cc(-c2ccccc2)[n+]1-c1ccc(S(N)(=O)=O)cc1 [Compound 36] | – | 305 µM | 2160 nM | 620 nM | –
NS(=O)(=O)c1ccc(-[n+]2c(-c3ccccc3)cc(-c3ccccc3)cc2-c2ccccc2)cc1 [Compound 37] | – | 290 µM | 2500 nM | – | Ki ([4]; read-out: KI hCA II): 510 nM
Cc1cc(C)[n+](-c2ccc(S(N)(=O)=O)cc2)c(C)c1C [Compound 38] | 72 nM | 5 µM | 61 nM | 40 nM | Ki [2]: 64 to 135 nM
Cc1cc(C)[n+](Cc2ccc(S(N)(=O)=O)cc2)c(C(C)C)c1 [Compound 40] | 42 nM | 6 µM | 80 nM | 50 nM | –
Cc1cc(C(C)C)[n+](Cc2ccc(S(N)(=O)=O)cc2)c(C(C)C)c1 [Compound 41] | 54 nM | 11 µM | 144 nM | 80 nM | –
Cc1cc(-c2ccccc2)cc(C)[n+]1Cc1ccc(S(N)(=O)=O)cc1 [Compound 42] | 26 nM | 4 µM | 70 nM | – | –
CCc1cc(-c2ccccc2)cc(CC)[n+]1Cc1ccc(S(N)(=O)=O)cc1 [Compound 43] | 29 nM | 2 µM | 52 nM | 21 nM | –
CCCc1cc(-c2ccccc2)cc(CCC)[n+]1Cc1ccc(S(N)(=O)=O)cc1 [Compound 44] | 230 nM | 24 µM | 163 nM | 90 nM | Ki [2]: 160 to 450 nM
CC(C)c1cc(-c2ccccc2)cc(C(C)C)[n+]1Cc1ccc(S(N)(=O)=O)cc1 [Compound 45] | 100 nM | 12 µM | – | 61 nM | –
Cc1cc(-c2ccccc2)cc(-c2ccccc2)[n+]1Cc1ccc(S(N)(=O)=O)cc1 [Compound 46] | 64 nM | 32 µM | 161 nM | – | Ki ([4]; read-out: KI hCA II): 121 nM
CCc1cc(-c2ccccc2)cc(-c2ccccc2)[n+]1Cc1ccc(S(N)(=O)=O)cc1.[O-][Cl+3]([O-])([O-])[O-] [Compound 47] | 79 nM | 42 µM | 983 nM | 314 nM | –
CCCc1cc(-c2ccccc2)cc(-c2ccccc2)[n+]1Cc1ccc(S(N)(=O)=O)cc1 [Compound 48] | 85 nM | 130 µM | 1260 nM | 390 nM | –
CC(C)c1cc(-c2ccccc2)cc(-c2ccccc2)[n+]1Cc1ccc(S(N)(=O)=O)cc1 [Compound 49] | 80 nM | 112 µM | – | 370 nM | –
CCCCc1cc(-c2ccccc2)cc(-c2ccccc2)[n+]1Cc1ccc(S(N)(=O)=O)cc1.[O-][Cl+3]([O-])([O-])[O-] [Compound 50] | 135 nM | 300 µM | 2100 nM | 595 nM | –
CC(C)(C)c1cc(-c2ccccc2)cc(-c2ccccc2)[n+]1Cc1ccc(S(N)(=O)=O)cc1 [Compound 51] | – | 110 µM | – | 321 nM | Ki [1]: 1070 nM
Cc1cc(C)[n+](CCc2ccc(S(N)(=O)=O)cc2)c(C)c1.[O-][Cl+3]([O-])([O-])[O-] [Compound 55] | 14 nM | – | – | – | –
CC(C)c1cc(-c2ccccc2)cc(C(C)C)[n+]1CCc1ccc(S(N)(=O)=O)cc1 [Compound 61] | 89 nM | 6 µM | – | 21 nM | Ki [2]: 64 to 135 nM
Cc1cc(-c2ccccc2)cc(-c2ccccc2)[n+]1CCc1ccc(S(N)(=O)=O)cc1 [Compound 62] | 37 nM | 18 µM | – | 103 nM | Ki [2]: 6 to 54 nM
CCc1cc(-c2ccccc2)cc(-c2ccccc2)[n+]1CCc1ccc(S(N)(=O)=O)cc1 [Compound 63] | 70 nM | 40 µM | – | 220 nM | –
CC(C)c1cc(-c2ccccc2)cc(-c2ccccc2)[n+]1CCc1ccc(S(N)(=O)=O)cc1 [Compound 65] | 78 nM | – | – | 350 nM | Ki ([3]; read-out: KI hCA I): 94 µM
CC(C)(C)c1cc(-c2ccccc2)cc(-c2ccccc2)[n+]1CCc1ccc(S(N)(=O)=O)cc1 [Compound 67] | – | 92 µM | 1000 nM | 275 nM | –
NS(=O)(=O)c1ccc(CC[n+]2c(-c3ccccc3)cc(-c3ccccc3)cc2-c2ccccc2)cc1 [Compound 68] | 95 nM | 270 µM | – | 419 nM | Ki [2]: 64 to 135 nM
Cc1cc(-c2ccccc2)[n+](-c2ccc(S(=O)(=O)Nc3nnc(S(N)(=O)=O)s3)cc2)c(-c2ccccc2)c1 [Compound 86] | – | – | – | – | Ki [2]: 12 to 35 nM; Ki ([2]; read-out: KI hCA IX, Table 3, catalytic domain of the human, cloned isozyme, CO2 hydrase assay method): 12 nM; Ki ([4]; Table 3, human (cloned) isozymes, esterase assay method, read-out: KI hCA II): 4.78 nM; Ki ([4]; read-out: KI against CA II): 3.13 to 5.96 nM
NS(=O)(=O)c1ccc(S(=O)(=O)Nc2cccc3c(Cl)c[nH]c23)cc1 [indisulam, reference compound] | – | – | 65 nM | – | Ki ([1]; Table 3, from bovine lung microsomes, esterase assay method): 65 nM
